Structures are written as SMILES. Converted amounts (≈) assume the structure as drawn.

Common to all, as to experiment: Bioactivity: growth inhibition / minimal inhibitory concentration in liquid culture
Holding throughout (type): cell-based

The test system of assay [1] is Bacillus subtilis ATCC 6633. The conditions noted are these: ATCC6633, 48 h, B. subtilis ATCC 6633, liquid 2x TY, microtiterplates incubated 2 days at 25 degrees Celsius, 550 rpm. The text has this: (§1) The adipoyl-7-amino-3-carbamoyloxymethyl-3-cephem-4-carboxylic acid prepared according to Example 3 was used to evaluate its activity versus different bacteria. Bacteria used were: Escherichia coli ESS [xxxref komt nogxx], Micrococcus luteus DSM 348 [Andrade, A. C., Van Nistelrooy, J. G. M., Peery, R. B., Skatrud, P. L., De Waard, M. A., 2000, The role of ABC transporters from Aspergillus nidulans in protection against cytotoxic agents and in antibiotic production] and Bacillus subtilis ATCC 6633 [xxxref komt nogxx] The bacteria were grown overnight in liquid 2× TY [xxxref komt nogxx] at 37 degrees and 280 rotations per minute and subsequently diluted 1000-fold in fresh medium. Two ml deep-well microtiterplates were inoculated with 1 ml of the diluted bacterial cultures and different concentrations of adipoyl-7-amino-3-carbamoyloxymethyl-3-cephem-4-carboxylic acid (adipoyl-ACCA or Ad-ACCA) were added to individual wells wells. As control several other active and less-active b-lactams were used: 6-APA, Adipoyl-6-APA, 7-ADCA, adipoyl-7-ADCA, 7-ACA, cephalosporinC and cefuroxime. The microtiterplates were incubated for 2 days at 25 degrees Celsius and 550 rotations per minute.
(§2) The results for growth inhibition by adipoyl-7-ADCA, adipoyl-ACCA and cefuroxime are summarized in FIGS. 14 (B. subtilis), 15 (E. coli) and 16 (M. luteus).
(§3) The minimal inhibitory concentrations of adipoyl-7-amino-3-carbamoyloxymethyl-3-cephem-4-carboxylic acid for B. subtilis ATCC 6633, E. coli ESS and M. luteus DSM 348 were 4, 7 and 7 uM, respectively.

Assay [2] deals with Micrococcus luteus DSM 348. The conditions noted are these: DSM348, 48 h, M. luteus DSM 348, liquid 2x TY, microtiterplates incubated 2 days at 25 degrees Celsius, 550 rpm.
Description: as §1, §2, §3

A further assay has as its system Escherichia coli ESS. The conditions noted are these: 48 h, E. coli ESS, liquid 2x TY, microtiterplates incubated 2 days at 25 degrees Celsius, 550 rpm.
Description: as §1, §2, §3

For `NC(=O)OCC1=C(C(=O)O)N2C(=O)[C@@H](NC(=O)CCCCC(=O)O)[C@H]2SC1` [adipoyl-7-amino-3-carbamoyloxymethyl-3-cephem-4-carboxylic acid], the figures for the MIC (in assay [1]; in assay [2]; with Escherichia coli ESS) were 4 µM (≈ 1.61 µg/mL), 7 µM (≈ 2.81 µg/mL) and 7 µM (≈ 2.81 µg/mL), respectively.

Source of the values: US20070093465A1, “Cephem compound” (priority 2003, published 2007).
